Laboratory results published in patent publication US9464064B2, “HCV helicase inhibitors and methods of use thereof” (University of Kansas, priority 2011, dated 2016).

Target: T1, HCV NS3 helicase NS3h_1b(con1) (Hepatitis C virus genotype 1b, UniProt Q9WMX2)
T1 construct: truncated C-terminally His-tagged NS3 proteins lacking the N-terminal protease, called NS3h; His-tag (C); made in house
Experiment: MBHA screen of NCI mechanistic set library at 20 μM (percent inhibition, compound interference)
Type: biochemical
Settings: compounds at 20 μM; for Inh. (%) (Inhibition): calculated from Equation 1
Summary of the method: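 Molecular beacon-based DNA unwinding assay; compounds screened at 20 μM in triplicate, with DMSO-only negative and 500 nM dT20 positive controls. Fluorescence (ex 643/em 670 nm) was read before and 30 min after adding ATP to 1 mM. Percent inhibition came from the change relative to DMSO controls; interference from pre-ATP fluorescence versus DMSO controls.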

[1] = assay interference calculated with Equation 2 (fluorescence vs DMSO-only controls before ATP)
[2] = MBHA with DNA substrate, assay interference calculated with Equation 2

T1 sequence (Q9WMX2 1192-1657): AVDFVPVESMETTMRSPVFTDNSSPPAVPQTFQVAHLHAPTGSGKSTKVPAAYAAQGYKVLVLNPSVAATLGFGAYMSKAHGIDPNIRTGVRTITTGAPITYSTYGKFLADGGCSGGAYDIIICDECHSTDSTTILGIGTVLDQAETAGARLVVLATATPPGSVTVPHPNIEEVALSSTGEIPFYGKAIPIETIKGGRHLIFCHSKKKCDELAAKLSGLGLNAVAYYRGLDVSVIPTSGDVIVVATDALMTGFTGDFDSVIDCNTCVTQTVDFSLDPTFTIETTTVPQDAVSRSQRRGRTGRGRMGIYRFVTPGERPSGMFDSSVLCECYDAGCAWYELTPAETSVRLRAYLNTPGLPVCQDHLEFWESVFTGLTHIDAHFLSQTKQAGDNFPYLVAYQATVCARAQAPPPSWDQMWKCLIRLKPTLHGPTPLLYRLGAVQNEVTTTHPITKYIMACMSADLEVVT

SMILES | Inh. (%) (Inhibition) (MBHA with a DNA substrate) | Int.* (Ratio) (Interference) [1] | Int.* (Ratio) (Interference) [2] | Inh. (%) (Inhibition) (MBHA with DNA substrate) | Inh. (%) (Inhibition) (MBHA with DNA substrate, 20 µM)
CC1=CC(O)C(O)C2(C)C1CC1OC(=O)C(O)C3C(C)C(O)C4(O)OCC13C42 (stereo not shown) [Compound 14974] |  |  | 0.99 Ratio | 20.9% | 
Nc1nc(-c2cccs2)cs1 [Compound 54297] | −4.0% | 0.96 Ratio |  |  | 
C1CN1c1nc(N2CC2)nc(N2CC2)n1 [Compound 9706] |  |  | 0.98 Ratio | −10.9% | 
O=C1N[C@H]2[C@H](O)[C@H](O)[C@@H](O)[C@H](O)[C@@H]2c2cc3c(c(O)c21)OCO3 [Compound 349156] |  |  | 0.95 Ratio | −10.2% | 
O=C1C(C(O)(C(F)(F)F)C(F)(F)F)CCC1C(O)(C(F)(F)F)C(F)(F)F (stereo not shown) [Compound 664181] |  |  | 0.84 Ratio | 14.5% | 
O/N=C(\CC(O)(C(F)(F)F)C(F)(F)F)c1cccc(Cl)c1 [Compound 664329] |  |  | 1.01 Ratio | −14.5% | 
CN(C)CCCCN1CCc2c(n(C)c3ccccc23)C1=O [Compound 658388] |  |  | 1.09 Ratio | −18.7% | 
CC1=CC23C(COC(=O)C24CO4)C(C(=O)O)=CC3C1C.NCc1ccccc1 (stereo not shown) [Compound 136037] |  |  | 1.00 Ratio | 3.9% | 
CO[C@@H]1C[C@](C)(O)Cc2cc3c(c(O)c21)C(=O)c1c(O)cc2c(c1C3=O)O[C@@H]1O[C@@]2(C)[C@H](O)[C@@H](N(C)C)[C@@H]1O [Compound 269148] | −4.1% | 0.71 Ratio |  |  | 
CC1(C)CC2=NO[Se]3=C2C(=NO3)C1 [Compound 328587] |  |  | 0.95 Ratio | −1.3% | 
CC(=O)NC1C(OCc2ccccc2)OC(CO)C(O)C1OC(C)C(=O)NC(C(=O)NC(CCC(=O)NCCCCNc1c2ccccc2nc2cccc([N+](=O)[O-])c12)C(N)=O)C(C)C (stereo not shown) [Compound 697468] | −23.8% | 0.97 Ratio |  |  | 
CCOC(=O)CNC(=O)NC12CC3CC(CC(C3)C1)C2 [Compound 208914] | −4.1% | 1.09 Ratio |  |  | 
COC(=O)C1=C(C(=O)OC)SC2(S1)C(C(=O)OC)=C(C(=O)OC)Sc1c2ssc1=O [Compound 686349] |  |  | 0.85 Ratio | −14.4% | 
COC(=O)[C@@H]1c2cc3c(c(O)c2[C@@H](OC)C[C@@]1(C)O)C(=O)c1c(O)cc2c(c1C3=O)O[C@@H]1O[C@@]2(C)[C@H](O)[C@@H](N(C)C)[C@@H]1O [Compound 102815] |  |  | 0.76 Ratio | −11.4% | 
Cc1ccc(S(=O)(=O)N2CCSCCSCCSCCSCC2)cc1 [Compound 650792] |  |  | 0.86 Ratio | −1.2% | 
CC(CN1CC(=O)NC(=O)C1)N1CC(=O)NC(=O)C1 (stereo not shown) [Compound 129943] | −5.2% | 1.13 Ratio |  |  | 
S=C=NCc1ccccc1 [Compound 118976] |  |  | 0.96 Ratio | 13.9% | 
Nc1ncnc2c1ncn2C1OC(CO)C(O)C1O (stereo not shown) [Compound 404241] |  |  | 1.06 Ratio |  | −11.9%
CCCCOCc1cc(CN2CCN(C)CC2)c(O)c2ncccc12 [Compound 20514] | −19.2% | 1.06 Ratio |  |  | 
O=[N+]([O-])c1ccc2c(c1)/C(=N/N=C1c3ccccc3Cc3ccccc31)c1cc([N+](=O)[O-])cc([N+](=O)[O-])c1-2 [Compound 658139] |  |  | 1.06 Ratio | −14.6% | 
NC(=O)C1=C[C@H]2[C@H]3C=C[C@@]2(O)C(=O)O[C@@H]3O1 [Compound 357683] |  |  | 0.99 Ratio | 2.7% | 
Nc1ncnc2c1ncn2C1OC(CO)C(O)C1O (stereo not shown) [Compound 70422] |  |  | 0.85 Ratio |  | 33.9%
CC(C)(C)C1CCC2(CC1)CCN(CCCN1CCOCC1)CC2 [Compound 90829] | −5.9% | 1.16 Ratio |  |  | 
Cc1cn(C2CC(O)C(CO)O2)c(=O)[nH]c1=O (stereo not shown) [Compound 21548] |  |  | 0.98 Ratio | 2.1% | 
COc1ccccc1Cc1nc(-c2ccccc2)nn(C2OC(COC(C)=O)C(OC(C)=O)C(OC(C)=O)C2OC(C)=O)c1=S (stereo not shown) [Compound 625873] |  |  | 1.02 Ratio | −16.6% | 
O=C(CC(O)(C(F)(F)F)C(F)(F)Cl)CC(O)(C(F)(F)F)C(F)(F)Cl (stereo not shown) [Compound 659174] | 8.7% | 0.92 Ratio |  |  | 
CCCCCC/C=C\CCCCCCCCCc1cccc(OC)c1O [Compound 617540] | −28.4% | 1.11 Ratio |  |  | 
CCC[CH2][Sn]([CH2]CCC)([CH2]CCC)[O]c1cc(Cl)c(Cl)cc1Cl [Compound 164914] | 11.5% | 0.91 Ratio |  |  | 
CCCCCCC1CC(=O)C1(Cl)Cl (stereo not shown) [Compound 666526] |  |  | 0.97 Ratio | −1.3% | 

Now from value to molecule:

Inh. (%) (Inhibition) (MBHA with a DNA substrate) | Int.* (Ratio) (Interference) [1] | Int.* (Ratio) (Interference) [2] | Inh. (%) (Inhibition) (MBHA with DNA substrate) | Inh. (%) (Inhibition) (MBHA with DNA substrate, 20 µM) | SMILES
−27.3% | 1.09 Ratio |  |  |  | CC1=CC(=O)c2ccccc2C1=O [Compound 4170]
−20.3% | 0.90 Ratio |  |  |  | O=C1c2ccccc2C(=O)c2nc(-c3ccccc3)c(-c3ccccc3)nc21 [Compound 629713]
 |  | 0.86 Ratio | −14.2% |  | Cc1[nH]c(=O)nc(N/N=C/c2ccc(Cl)cc2)c1C(=O)Nc1ccc(Cl)cc1 [Compound 624947]
 |  | 0.90 Ratio | 68.8% |  | O=[N+]([O-])c1cccc2c(N=Nc3ccc4ccccc4c3O)c(O)cc(S(=O)(=O)[O-])c12.[Na+] [Compound 85561]
 |  | 0.59 Ratio | 38.8% |  | CCN1/C(=C\C(C)=C\c2sc3ccccc3[n+]2CC)Sc2ccccc21.[I-] [Compound 96932]
 |  | 0.98 Ratio | 31.0% |  | CC(C)c1ccc(O)c(=O)cc1 [Compound 18805]
 |  | 0.89 Ratio | −11.4% |  | N[C@@H](Cc1ccc2oc3cc(=O)c4ccccc4c-3nc2c1)C(=O)O [Compound 672425]
 |  | 0.98 Ratio | −11.9% |  | Cc1ccc([N+](=O)[O-])cc1NC(=O)c1cccc([N+](=O)[O-])c1O [Compound 79451]
 |  | 1.07 Ratio | −14.4% |  | Cc1ccc(S(=O)(=O)c2ccc([N+](=O)[O-])o2)cc1 [Compound 697923]
 |  | 1.00 Ratio | 18.6% |  | Cc1c2c(cc3c1[nH]c1ccccc13)C=NCC2 [Compound 86100]
 |  | 1.06 Ratio | −1.2% |  | Cc1cccc(NC(=O)/C=C/c2ccc([N+](=O)[O-])cc2)c1 [Compound 139109]
 |  | 0.90 Ratio | −2.7% |  | COc1ccc2ccccc2c1C1OC(=O)c2ccccc21 (stereo not shown) [Compound 638504]
 |  | 0.91 Ratio | −13.1% |  | O=C(NC1=C(Cl)C(=O)c2ccccc2C1=O)C(=O)C(C(=O)c1ccc2ccccc2c1)C1OC(=O)c2ccccc21 (stereo not shown) [Compound 641233]
 |  | 0.97 Ratio | 18.4% |  | Oc1ccc2ccccc2c1N=Nc1cccc2ccccc12 [Compound 45575]
 |  | 0.98 Ratio | 1.1% |  | Cc1cc(NC(=O)NC(=O)c2ccccc2NC(=O)CN)ccc1Oc1ncc(Br)cn1.Cl [Compound 654259]
 |  | 0.93 Ratio | −7.3% |  | COC(=O)C(=O)C(C(=O)Nc1cccc(C)c1C)C1Sc2ccccc2NC1=O (stereo not shown) [Compound 635833]
 |  | 1.01 Ratio | −14.4% |  | CC1OC(CC(=O)O)CC2=C1C(=O)c1c(O)cccc1C2=O (stereo not shown) [Compound 267461]
 |  | 0.29 Ratio | 2.3% |  | CN(C)c1ccc2c(SCC(=O)OCC(=O)[C@@]3(O)CC[C@H]4[C@@H]5CCC6=CC(=O)C=C[C@]6(C)[C@H]5C(=O)C[C@@]43C)c3ccc(N(C)C)cc3nc2c1 [Compound 337851]
6.8% | 0.90 Ratio |  |  |  | NC(=S)N/N=C/c1ccc(OC(=O)COc2ccccc2Cl)cn1 [Compound 185056]
 |  | 0.89 Ratio | 23.2% |  | O=[N+]([O-])c1ccccc1S(=O)(=O)c1ccccc1[N+](=O)[O-] [Compound 633001]
 |  | 0.92 Ratio | 55.6% |  | Cc1c2ccncc2cc2c1[nH]c1ccccc12 [Compound 87206]
 |  | 0.90 Ratio | 19.4% |  | O=c1c(O)c(-c2ccc(O)c(O)c2)oc2cc(O)ccc12 [Compound 407010]
 |  | 1.16 Ratio | −9.5% |  | O=C(O)c1ccccc1-c1ccccc1C(=O)Nc1ccc2c(c1)Cc1ccccc1-2 [Compound 67690]
 |  | 0.83 Ratio | 28.1% |  | C=C1CC(COc2cc(=O)oc3ccccc23)(c2ccccc2)OC1=O (stereo not shown) [Compound 668270]
